# Assay results as given in patent US20170313664A1, “NOVEL FORM OF PYRIMIDINE COMPOUND HAVING DIBENZYLAMINE STRUCTURE” (KOWA COMPANY, LTD., priority 2013, published 2017).
# Experiment: Heat stability test (remaining percentage by HPLC peak area after preservation in a glass bottle)
# Assay type: physicochemical
# Settings: for Remaining percentage (%) of pyrimidine compound (1): HPLC area percentage, 242 nm
# Procedure: A test compound was placed in a glass bottle, and it was then preserved for a predetermined period of time under temperature conditions of 80° C., 100° C., or 120° C. Thereafter, the remaining percentage (%) of the pyrimidine compound (1) in the test compound was measured.
# The remaining percentage was obtained by measuring the rate of the pyrimidine compound (1) contained in the test compound according to high performance liquid chromatography and expressing the measured value as a peak area percentage. In the measurement according to high performance liquid chromatography, an ODS column was used as a column, and a mixture of two solvents, namely, a 0.1% TFA aqueous solution and a 0.1% TFA acetonitrile solution, was used as a solvent. The detection wavelength was set at 242 nm.
# From the obtained area percentage of the pyrimidine compound (1), the remaining percentage was calculated according to the following calculation formula.
# Remaining percentage (%)=Area percentage of pyrimidine compound (1) after preservation/area percentage of pyrimidine compound (1) before preservation×100
# As test compounds, the crystal obtained in Example 1-3 (a crystal of the pyrimidine compound (1) hydrochloride) and a free form of the pyrimidine compound (1) were used.
# [1] = After preservation at 80° C. for 72 hours
# [2] = After preservation at 100° C. for 24 hours
# [3] = After preservation at 120° C. for 16 hours
Structure (SMILES),Remaining percentage (%) of pyrimidine compound (1) [1],Remaining percentage (%) of pyrimidine compound (1) [2],Remaining percentage (%) of pyrimidine compound (1) [3],Heat stability (overall assessment) (conclusion from the test results of Table 8 (80-120° C.))
"CCN(C[C@H]1CC[C@H](CC(=O)O)CC1)c1ccc(C(F)(F)F)cc1CN(c1ncc(OCCS(C)(=O)=O)cn1)[C@@H](C)c1cc(C(F)(F)F)cc(C(F)(F)F)c1.Cl [(S)-trans-{4-[({2-[({1-[3,5-bis(trifluoromethyl)phenyl]ethyl}{5-[2-(methylsulfonyl)ethoxy]pyrimidin-2-yl}amino)methyl]-4-(trifluoromethyl)phenyl}(ethyl)amino)methyl]cyclohexyl}acetic acid monohydrochloride]",100.0%,100.0%,99.5%,excellent heat stability
"CCN(C[C@H]1CC[C@H](CC(=O)O)CC1)c1ccc(C(F)(F)F)cc1CN(c1ncc(OCCS(C)(=O)=O)cn1)[C@@H](C)c1cc(C(F)(F)F)cc(C(F)(F)F)c1 [Free form of pyrimidine compound (1), (S)-trans-{4-[({2-[({1-[3,5-bis(trifluoromethyl)phenyl]ethyl}{5-[2-(methylsulfonyl)ethoxy]pyrimidin-2-yl}amino)methyl]-4-(trifluoromethyl)phenyl}(ethyl)amino)methyl]cyclohexyl}acetic acid]",99.5%,89.3%,71.5%,–
